Tests used:
[1] = CLA incorporated into animal feed; cited from earlier work
[2] = diet containing 0.5 percent CLA, cited from earlier work
[3] = tested on: rat mammary tumorigenesis; details: administration of CLA; cited from earlier work
[4] = tested on: CD-4 and CD-8 lymphocyte subpopulations; details: oral or parenteral, free acid or salt form; cited from earlier work
[5] = Peroxide value (PV), spectrophotometric ferric thiocyanate method, after storage in open glass; format: physicochemical
Description: The present invention also contemplates stabilization of the CLA acylglycerides by preventing oxidation of the compounds. The present invention is not limited to any one mechanism. Indeed, an understanding of the mechanism of the invention is not necessary to produce the composition or perform the methods of the present invention. […] After storage in open glass, the PV of CLA was 32; in comparison, the value for linoleic acid was 370.

[6] = tested on: human melanoma, colorectal and breast cancer cells; details: in vitro; cited from earlier work

peroxide value (PV) [5]	Compound	efficiency of feed conversion [1]	body weight [2]	fat content ([2]; pigs, mice, humans)	protein mass ([2]; pigs, mice, humans)	effect on rat mammary tumorigenesis [3]	CD-4 and CD-8 lymphocyte subpopulations [4]	cytotoxicity [6]
32	conjugated linoleic acid [CLA]	increased the efficiency of feed conversion	no increase	significant drop	concomitant increase	inhibits rat mammary tumorigenesis	elevation	strong cytotoxic agent
370	CCCCC/C=C\C/C=C\CCCCCCCC(=O)O [linoleic acid, reference compound]							

Reference: patent publication US6891054B2, “Functional acylglycerides” (Natural AS, priority 2001, dated 2005)
